Measured values: ChEMBL document CHEMBL1127170, “Cyclooxygenase and 5-lipoxygenase inhibitory activity of 2,6 di-t-butylphenols linked by a sulfur atom to 1,3,4-thiadiazoles and 1,3,4-oxadiazoles” (Bioorg Med Chem Lett, 1993)

Legend:
[1] = target: T1, Polyunsaturated fatty acid 5-lipoxygenase (Rattus norvegicus) (UniProt P12527); assay: The compound was tested for the inhibition of 5-lipoxygenase in intact basophilic rat leukemia cells at 1.0 uM; type: cell-based; conditions: RBL-1
T1 sequence (whole entry): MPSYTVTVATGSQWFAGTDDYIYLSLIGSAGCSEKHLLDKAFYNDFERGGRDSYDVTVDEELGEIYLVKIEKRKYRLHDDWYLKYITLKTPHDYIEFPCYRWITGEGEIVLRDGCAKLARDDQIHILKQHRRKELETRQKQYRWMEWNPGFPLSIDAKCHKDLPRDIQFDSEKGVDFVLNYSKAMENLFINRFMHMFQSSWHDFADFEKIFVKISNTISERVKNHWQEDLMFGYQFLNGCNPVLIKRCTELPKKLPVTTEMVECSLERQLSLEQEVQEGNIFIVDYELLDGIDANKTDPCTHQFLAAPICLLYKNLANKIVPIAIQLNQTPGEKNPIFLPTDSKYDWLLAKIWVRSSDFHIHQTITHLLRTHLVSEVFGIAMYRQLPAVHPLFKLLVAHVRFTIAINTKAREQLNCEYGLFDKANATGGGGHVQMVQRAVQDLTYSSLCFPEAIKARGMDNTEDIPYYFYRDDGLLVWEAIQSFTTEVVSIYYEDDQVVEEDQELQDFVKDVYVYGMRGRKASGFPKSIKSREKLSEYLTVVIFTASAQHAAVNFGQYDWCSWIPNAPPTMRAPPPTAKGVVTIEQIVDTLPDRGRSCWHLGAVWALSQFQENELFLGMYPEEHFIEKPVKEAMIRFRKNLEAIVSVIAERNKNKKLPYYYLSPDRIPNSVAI

[2] = target: T2, Cyclooxygenase (Rattus norvegicus) (UniProt P35355+Q63921); assay: The compound was tested for the inhibition of Prostaglandin G/H synthase in intact basophilic rat leukemia cells at 16 uM
[3] = target: T3, Polyunsaturated fatty acid 5-lipoxygenase (Rattus norvegicus, UniProt P12527); assay: The compound was tested for the inhibition of 5-lipoxygenase in intact basophilic rat leukemia cells; type: cell-based, RBL-1
T3 sequence (P12527 whole entry): T1 sequence (whole entry)

Cyclooxygenase = target: T4, Cyclooxygenase (Rattus norvegicus, UniProt P35355+Q63921); assay: The compound was tested for the inhibition of Prostaglandin G/H synthase in intact basophilic rat leukemia cells
T4 sequence (P35355 whole entry): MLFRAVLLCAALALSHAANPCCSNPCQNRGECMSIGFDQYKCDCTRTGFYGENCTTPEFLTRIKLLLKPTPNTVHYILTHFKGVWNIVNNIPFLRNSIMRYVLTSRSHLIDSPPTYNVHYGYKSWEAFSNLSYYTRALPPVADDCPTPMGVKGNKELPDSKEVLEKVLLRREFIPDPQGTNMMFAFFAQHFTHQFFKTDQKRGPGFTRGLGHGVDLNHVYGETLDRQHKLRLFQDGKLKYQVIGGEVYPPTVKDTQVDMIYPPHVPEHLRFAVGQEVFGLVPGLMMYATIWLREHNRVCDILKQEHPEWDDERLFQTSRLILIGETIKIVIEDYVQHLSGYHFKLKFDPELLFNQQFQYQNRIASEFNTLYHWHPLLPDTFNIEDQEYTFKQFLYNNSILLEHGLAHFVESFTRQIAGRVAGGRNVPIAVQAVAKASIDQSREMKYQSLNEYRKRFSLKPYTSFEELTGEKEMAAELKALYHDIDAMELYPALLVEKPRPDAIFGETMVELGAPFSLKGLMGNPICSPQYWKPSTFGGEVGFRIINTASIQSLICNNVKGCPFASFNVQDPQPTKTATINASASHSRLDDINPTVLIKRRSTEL
T4 sequence (Q63921 whole entry): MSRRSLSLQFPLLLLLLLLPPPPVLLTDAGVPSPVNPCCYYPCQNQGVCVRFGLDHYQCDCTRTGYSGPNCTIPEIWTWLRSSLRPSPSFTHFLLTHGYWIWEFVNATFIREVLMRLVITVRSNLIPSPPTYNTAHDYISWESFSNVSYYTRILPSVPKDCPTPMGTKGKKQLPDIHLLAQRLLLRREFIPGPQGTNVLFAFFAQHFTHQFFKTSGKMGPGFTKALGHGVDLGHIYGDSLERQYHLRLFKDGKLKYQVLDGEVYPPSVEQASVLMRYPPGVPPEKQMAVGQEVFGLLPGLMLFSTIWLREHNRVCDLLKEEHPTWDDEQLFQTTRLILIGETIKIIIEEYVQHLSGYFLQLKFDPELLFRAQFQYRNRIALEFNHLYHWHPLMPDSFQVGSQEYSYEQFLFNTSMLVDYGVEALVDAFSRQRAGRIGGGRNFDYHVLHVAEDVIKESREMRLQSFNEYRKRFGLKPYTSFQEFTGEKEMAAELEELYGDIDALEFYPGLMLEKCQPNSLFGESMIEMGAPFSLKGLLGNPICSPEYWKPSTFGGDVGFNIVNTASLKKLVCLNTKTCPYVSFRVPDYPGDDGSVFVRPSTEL

[4] = target: T2, Cyclooxygenase (Rattus norvegicus); assay: The compound was tested for the inhibition of Prostaglandin G/H synthase in intact basophilic rat leukemia cells at 10 uM
[5] = target: T1, Polyunsaturated fatty acid 5-lipoxygenase (Rattus norvegicus); assay: The compound was tested for the inhibition of 5-lipoxygenase in intact basophilic rat leukemia cells at 10 uM; type: cell-based; conditions: RBL-1

Row | SMILES | inhibition [2] [%] | IC50 [3] [µM] | IC50 (Cyclooxygenase) [µM] | other results
1 | CC(C)(C)c1cc(Sc2nnc(O)s2)cc(C(C)(C)C)c1O | < 40 | – | – | inhibition [1]: 75%
2 | CC(C)(C)c1cc(Sc2nnc(O)o2)cc(C(C)(C)C)c1O | < 40 | 1.1 | – | –
3 | CC(C)(C)c1cc(Sc2nnc(S)s2)cc(C(C)(C)C)c1O | – | – | 3.6 | –
4 | CC(C)(C)c1cc(Sc2nnc(N)s2)cc(C(C)(C)C)c1O | – | – | – | inhibition [4]: < 40%; inhibition [5]: < 40%
5 | CC(C)(C)c1cc(Sc2nnc(S)o2)cc(C(C)(C)C)c1O | – | – | 1.5 | –
6 | CC(C)(C)c1cc(Sc2nnc(NC#N)s2)cc(C(C)(C)C)c1O | – | 3.1 | 6 | –
